Experimental data: US10072011B2, “Substituted bridged urea analogs as sirtuin modulators” (GlaxoSmithKline Intellectual Property (No.2) Limited, priority 2014, dated 2018)

Target: T1, SIRT1 (Homo sapiens, UniProt Q96EB6)
T1 sequence (Q96EB6 1-747): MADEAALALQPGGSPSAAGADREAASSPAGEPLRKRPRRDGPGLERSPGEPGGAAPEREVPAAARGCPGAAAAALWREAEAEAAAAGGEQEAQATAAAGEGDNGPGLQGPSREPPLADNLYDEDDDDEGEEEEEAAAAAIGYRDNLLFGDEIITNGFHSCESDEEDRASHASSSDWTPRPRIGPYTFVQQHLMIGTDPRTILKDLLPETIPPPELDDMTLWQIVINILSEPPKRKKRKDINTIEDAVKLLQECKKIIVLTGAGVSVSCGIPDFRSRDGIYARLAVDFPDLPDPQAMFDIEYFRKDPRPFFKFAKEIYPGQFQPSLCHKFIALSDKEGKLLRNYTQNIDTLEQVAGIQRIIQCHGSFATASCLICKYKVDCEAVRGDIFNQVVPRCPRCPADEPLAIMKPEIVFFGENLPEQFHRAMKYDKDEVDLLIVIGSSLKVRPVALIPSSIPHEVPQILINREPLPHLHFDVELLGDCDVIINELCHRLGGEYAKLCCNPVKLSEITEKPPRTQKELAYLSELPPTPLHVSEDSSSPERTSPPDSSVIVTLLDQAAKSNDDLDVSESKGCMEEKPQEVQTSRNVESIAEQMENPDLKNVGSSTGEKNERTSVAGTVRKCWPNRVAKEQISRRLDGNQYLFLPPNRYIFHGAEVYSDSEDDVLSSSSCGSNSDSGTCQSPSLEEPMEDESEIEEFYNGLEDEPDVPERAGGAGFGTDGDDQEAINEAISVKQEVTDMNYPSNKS
Assay: Trp mass spectrometry assay of SIRT1 activation (Ac-R-H-K-K(Ac)-W-NH2 peptide)
Type: biochemical
Conditions: Trp peptide 0.5 μM, 120 μM βNAD+, 10 nM SIRT1, 25 min at 25° C.; for Emax: 25 min, relative to control (100%), read-out: TRP MAX RESP (percent maximum fold activation)
Procedure, shortened: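 Mass spectrometry read-out (OAADPR formed, or deacetylated Trp peptide) after a 25 min NAD-dependent deacetylation by E. coli-expressed His-SIRT1, stopped with formic acid.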

Compound | Emax [%] | TRP Activity (EC1.5, concentration of test compound that results in 150% activation of SIRT1)
Cc1ccnc(NC(=O)N2c3nc(C(=O)N[C@H](C)C(F)(F)F)ccc3N3CC[C@H]2C3)c1 [Example 55, (4S)—N5-(4-methylpyridin-2-yl)-N7-((R)-1,1,1-trifluoropropan-2-yl)-3,4-dihydro-1,4-methanopyrido[2,3-b][1,4]diazepine-5,7(2H)-dicarboxamide] | > 150 | A (EC1.5<1 μM)
O=C(NC1CC1)c1ccc2c(n1)N(C(=O)Nc1cc(OC[C@@H](O)CO)ccn1)[C@H]1CCN2C1 [Example 250, (4S)—N7-cyclopropyl-N5-(4-((S)-2,3-dihydroxypropoxy)pyridin-2-yl)-3,4-dihydro-1,4-methanopyrido[2,3-b][1,4]diazepine-5,7(2H)-dicarboxamide] | > 150 | A (EC1.5<1 μM)
Cn1cccc(NC(=O)N2c3nc(C(=O)NCC(F)(F)F)ccc3N3CC[C@H]2C3)c1=O [Example 23, (4S)—N5-(1-methyl-2-oxo-1,2-dihydropyridin-3-yl)-N7-(2,2,2-trifluoroethyl)-3,4-dihydro-1,4-methanopyrido[2,3-b][1,4]diazepine-5,7(2H)-dicarboxamide] | > 150 | A (EC1.5<1 μM)
NC(CNC(=O)c1ccc2c(n1)N(C(=O)Nc1ccccn1)[C@H]1CCN2C1)C(F)(F)F (single isomer, unassigned) [Example 49] | > 150 | B (EC1.5 1-25 μM)
COCC(NC(=O)c1ccc2c(n1)N(C(=O)Nc1ccccn1)[C@H]1CCN2C1)C(F)(F)F (stereo partly drawn) [Example 9, (4S)—N-5-(pyridin-2-yl)-N-7-(1,1,1-trifluoro-3-methoxypropan-2-yl)-3,4-dihydro-1,4-methanopyrido[2,3-b][1,4]diazepine-5,7(2H)-dicarboxamide] | > 150 | A (EC1.5<1 μM)
C[C@@H](NC(=O)c1ccc2c(n1)N(C(=O)Nc1cc[nH]n1)[C@H]1CCN2C1)C(F)(F)F [Example 68, (4S)—N5-(1H-pyrazol-3-yl)-N7-((R)-1,1,1-trifluoropropan-2-yl)-3,4-dihydro-1,4-methanopyrido[2,3-b][1,4]diazepine-5,7(2H)-dicarboxamide] | > 150 | A (EC1.5<1 μM)
C#Cc1ccnc(NC(=O)N2c3nc(C(=O)N[C@H](C)C(F)(F)F)ccc3N3CC[C@H]2C3)c1 [Example 299, (4S)—N5-(4-ethynylpyridin-2-yl)-N7-((R)-1,1,1-trifluoropropan-2-yl)-3,4-dihydro-1,4-methanopyrido[2,3-b][1,4]diazepine-5,7(2H)-dicarboxamide] | < 150 | A (EC1.5<1 μM)
CC(C)(CCO)NC(=O)c1ccc2c(n1)N(C(=O)Nc1ccccn1)[C@H]1CCN2C1 [Example 209, (4S)—N7-(4-hydroxy-2-methylbutan-2-yl)-N5-(pyridin-2-yl)-3,4-dihydro-1,4-methanopyrido[2,3-b][1, 4] diazepine-5, 7(2H)-dicarboxamide] | > 150 | B (EC1.5 1-25 μM)
C[C@@H](NC(=O)c1ccc2c(n1)N(C(=O)Nc1cc(OCC(=O)O)ccn1)[C@H]1CCN2C1)C(F)(F)F [Example 265, 2-((2-((4S)-7-(((R)-1,1,1-trifluoropropan-2-yl)carbamoyl)-2,3,4,5-tetrahydro-1,4-methanopyrido[2,3-b][1,4]diazepine-5-carboxamido)pyridin-4-yl)oxy)acetic acid] | > 150 | B (EC1.5 1-25 μM)
CCC(NC(=O)c1ccc2c(n1)N(C(=O)Nc1ccccn1)[C@H]1CCN2C1)C(F)(F)F (stereo in doubt) [Example 61, (4S)—N5-(pyridin-2-yl)-N7-((S)-1,1,1-trifluorobutan-2-yl)-3,4-dihydro-1,4-methanopyrido[2,3-b][1,4]diazepine-5,7(2H)-dicarboxamide] | > 150 | A (EC1.5<1 μM)

Other lines, results leading:

Emax [%] | TRP Activity (EC1.5, concentration of test compound that results in 150% activation of SIRT1) | Compound
> 150 | A (EC1.5<1 μM) | C[C@@H](NC(=O)c1nc2c(cc1Cl)N1CC[C@@H](C1)N2C(=O)Nc1ccccn1)C(F)(F)F [Example 280, (4S)-8-chloro-N5-(pyridin-2-yl)-N7-((R)-1,1,1-trifluoropropan-2-yl)-3,4-dihydro-1,4-methanopyrido[2,3-b][1,4]diazepine-5,7(2H)-dicarboxamide]
> 150 | A (EC1.5<1 μM) | CC(C)CNC(=O)c1ccc2c(n1)N(C(=O)Nc1ccccn1)[C@H]1CCN2C1 [Example 37, (4S)—N7-isobutyl-N5-(pyridin-2-yl)-3,4-dihydro-1,4-methanopyrido[2,3-b][1,4]diazepine-5,7(2H)-dicarboxamide]
> 150 | A (EC1.5<1 μM) | C[C@@H](NC(=O)c1nc2c(cc1F)N1CC[C@@H](C1)N2C(=O)Nc1cc(OC[C@H](O)CO)ccn1)C(F)(F)F [Example 283, (4S)—N5-(4-((R)-2,3-dihydroxypropoxy)pyridin-2-yl)-8-fluoro-N7-((R)-1,1,1-trifluoropropan-2-yl)-3,4-dihydro-1,4-methanopyrido[2,3-b][1,4]diazepine-5,7(2H)-dicarboxamide]
< 150 | A (EC1.5<1 μM) | Cc1ncc(-c2ccnc(NC(=O)N3c4nc(C(=O)NCC(F)(F)F)cc(C)c4N4CC[C@H]3C4)c2)o1 [Example 293, (4S)-9-methyl-N5-(4-(2-methyloxazol-5-yl)pyridin-2-yl)-N7-(2,2,2-trifluoroethyl)-3,4-dihydro-1,4-methanopyrido[2,3-b][1,4]diazepine-5,7(2H)-dicarboxamide]
> 150 | B (EC1.5 1-25 μM) | Cc1nc(NC(=O)N2c3nc(C(=O)NC4CC4)ccc3N3CC[C@H]2C3)co1 [Example 255, (4S)—N7-cyclopropyl-N5-(2-methyloxazol-4-yl)-3,4-dihydro-1,4-methanopyrido[2,3-b][1,4]diazepine-5,7(2H)-dicarboxamide]
> 150 | A (EC1.5<1 μM) | C[C@@H](NC(=O)c1ccc2c(n1)N(C(=O)Nc1cc(N3CCOC3=O)ccn1)[C@H]1CCN2C1)C(F)(F)F [Example 165, (4S)—N5-(4-(2-oxooxazolidin-3-yl)pyridin-2-yl)-N7-((R)-1,1,1-trifluoropropan-2-yl)-3,4-dihydro-1,4-methanopyrido[2,3-b][1,4]diazepine-5,7(2H)-dicarboxamide]
> 150 | A (EC1.5<1 μM) | C[C@@H](NC(=O)c1ccc2c(n1)N(C(=O)Nc1ncccn1)[C@H]1CCN2C1)C(F)(F)F [Example 130, (4S)—N5-(pyrimidin-2-yl)-N7-((R)-1,1,1-trifluoropropan-2-yl)-3,4-dihydro-1,4-methanopyrido[2,3-b][1,4]diazepine-5,7(2H)-dicarboxamide]
> 150 | A (EC1.5<1 μM) | O=C(NCCO)c1ccnc(NC(=O)N2c3nc(C(=O)NCC(F)(F)F)ccc3N3CC[C@H]2C3)c1 [Example 180, (4S)—N5-(4-((2-hydroxyethyl)carbamoyl)pyridin-2-yl)-N7-(2,2,2-trifluoroethyl)-3,4-dihydro-1,4-methanopyrido[2,3-b][1,4]diazepine-5,7(2H)-dicarboxamide]
> 150 | B (EC1.5 1-25 μM) | O=C(NC1CC1)c1ccc2c(n1)N(C(=O)Nc1cc(OC[C@H](O)CO)ccn1)[C@H]1CCN2C1 [Example 24, (4S)—N7-cyclopropyl-N5-(4-((R)-2,3-dihydroxypropoxy)pyridin-2-yl)-3,4-dihydro-1,4-methanopyrido[2,3-b][1,4]diazepine-5,7(2H)-dicarboxamide]
> 150 | B (EC1.5 1-25 μM) | O=C(O)c1ccc(NC(=O)N2c3nc(C(=O)NCC(F)(F)F)ccc3N3CC[C@H]2C3)nc1 [Example 213, 6-((4S)-7-((2,2,2-trifluoroethyl)carbamoyl)-2,3,4,5-tetrahydro-1,4-methanopyrido[2,3-b][1,4]diazepine-5-carboxamido)nicotinic acid]
